Test [1] relates to Trypanosoma cruzi. The experiment in a line: Inhibitory concentration against growth of Trypanosoma cruzi amastigotes. The format is functional, organism-based.
In test [2] the test system is Trypanosoma cruzi. Kind of test: Inhibitory concentration against growth of Trypanosoma cruzi epimastigotes. The format is functional, organism-based.

The structures appear in SMILES notation.

What is called IC50 is the concentration that gives 50% inhibition. Read a low IC50 as higher potency. With `CCCC(N)(P(=O)(O)O)P(=O)(O)O`, the results for the IC50 with Trypanosoma cruzi [1] and in the test with Trypanosoma cruzi [2] were greater than 85 µM and greater than 100 µM, respectively.

Regarding `CCCCC(N)(P(=O)(O)O)P(=O)(O)O`, the IC50 in the test with Trypanosoma cruzi [1] was greater than 85 µM; in the test on Trypanosoma cruzi [2], greater than 100 µM.

Turning to `CCC(N)(P(=O)(O)O)P(=O)(O)O`, the results for the IC50 with Trypanosoma cruzi [1] and in the test with Trypanosoma cruzi [2] were greater than 85 µM and greater than 100 µM, respectively.

Consider `CCCCCC(N)(P(=O)(O)O)P(=O)(O)O`, for which the figures for the IC50 in the test with Trypanosoma cruzi [1] and in the test on Trypanosoma cruzi [2] were 77 µM and greater than 100 µM, respectively.

Regarding `CC(N)(P(=O)(O)O)P(=O)(O)O`, the IC50 in the test on Trypanosoma cruzi [1] and with Trypanosoma cruzi [2] was greater than 100 µM throughout.

For the compound `CCCCCCC(N)(P(=O)(O)O)P(=O)(O)O`, the results for the IC50 with Trypanosoma cruzi [1] and in the test with Trypanosoma cruzi [2] were 72 µM and greater than 100 µM, respectively.

For the origin of these results see ChEMBL document CHEMBL1143452, “Synthesis and biological evaluation of 1-amino-1,1-bisphosphonates derived from fatty acids against Trypanosoma cruzi targeting farnesyl pyrophosphate synthase” (Bioorg Med Chem Lett, 2005).
